Assay results: ChEMBL document CHEMBL5316283, “Discovery of High-Affinity Small-Molecule Binders of the Epigenetic Reader YEATS4” (J Med Chem, 2023)

What was measured:
[1] = biological target: T1, YEATS domain-containing protein 4 (Homo sapiens, UniProt O95619); test: Binding affinity to human his-tagged recombinant YEATS4 expressed in Escherichia coli assessed as inhibition constant using biotin tagged lysine 27-crotonylated histone H3 peptide as substrate preincubated for 20 mins followed by substrate addition measured after 30 mins by FRET analysis
[2] = Apparent permeability in dog RRCK cells; type: ADME, cell-based, Canis lupus familiaris, MDCKII-LE; settings: MDCK
[3] = Intrinsic clearance in human hepatocytes assessed per million cells; type: ADME, cell-based, Hepatocyte; settings: read-out: CLH
[4] = biological target: Voltage-gated inwardly rectifying potassium channel KCNH2 (Homo sapiens, UniProt Q12809); test: Inhibition of hERG assessed as inhibition constant by patch-clamp assay; type: toxicity
[5] = Cytotoxicity against human THLE cells assessed as inhibition of cell growth by CellTiter-Glo assay; type: toxicity, cell-based
[6] = species: Homo sapiens; test: Selectivity ratio of Ki for human recombinant YEATS1 to Ki for human recombinant YEATS4
[7] = species: Homo sapiens; test: Selectivity ratio of Ki for human recombinant YEATS2 to Ki for human recombinant YEATS4
[8] = species: Homo sapiens; test: Selectivity ratio of Ki for human recombinant YEATS3 to Ki for human recombinant YEATS4
[9] = Lipophilicity, logD of the compound by shake flask method; type: physicochemical; settings: octanol/water
[10] = biological target: T1, YEATS domain-containing protein 4; test: Inhibition of N-terminal nanoLuc-tagged YEATS4 in HEK293T cells co-transfected with C-terminal halo-tagged histone 3.3 incubated for 24 hrs in presence of SAHA by NanoBRET assay; type: cell-based
[11] = Cytotoxicity against human Bone marrow cell assessed as reduction in cell viability measured after 7 days; type: toxicity, cell-based; settings: bone marrow cells
[12] = biological target: T1, YEATS domain-containing protein 4; test: Binding affinity to C-terminal biotin-tagged YEATS4 (unknown origin) by SPR analysis
[13] = biological target: T1, YEATS domain-containing protein 4; test: Binding affinity to YEATS4 (unknown origin) assessed as dissociation constant by isothermal calorimetric analysis
[14] = Volume of distribution at steady state in rat at 1 mg/kg, iv; type: ADME, organism-based; settings: in vivo, read-out: Vdss
[15] = Volume of distribution at steady state in mouse at 1 mg/kg, iv; type: ADME, organism-based; settings: in vivo, read-out: Vdss
[16] = Half life in rat at 3 mg/kg, po; type: ADME, organism-based; settings: in vivo
[17] = Half life in mouse at 3 mg/kg, po; type: ADME, organism-based; settings: in vivo
[18] = Half life in mouse at 100 mg/kg, po; type: ADME, organism-based; settings: in vivo
[19] = Cmax in rat at 3 mg/kg, po; type: ADME, organism-based; design: dose 3 mg/kg, route po; settings: in vivo
[20] = Cmax in mouse at 3 mg/kg, po; type: ADME, organism-based; design: dose 3 mg/kg, route po; settings: in vivo
[21] = Cmax in mouse at 100 mg/kg, po; type: ADME, organism-based; design: dose 100 mg/kg, route po; settings: in vivo
[22] = AUC in rat at 3 mg/kg, po; type: ADME, organism-based; design: dose 3 mg/kg, route po; settings: in vivo
[23] = AUC in mouse at 3 mg/kg, po; type: ADME, organism-based; design: dose 3 mg/kg, route po; settings: in vivo
[24] = AUC in mouse at 100 mg/kg, po; type: ADME, organism-based; design: dose 100 mg/kg, route po; settings: in vivo
[25] = Tmax in rat at 3 mg/kg, po; type: ADME, organism-based; settings: in vivo
[26] = Tmax in mouse at 3 mg/kg, po; type: ADME, organism-based; settings: in vivo
[27] = Tmax in mouse at 100 mg/kg, po; type: ADME, organism-based; settings: in vivo
[28] = Oral bioavailability in rat at 3 mg/kg; type: ADME, organism-based; settings: in vivo
[29] = Oral bioavailability in mouse at 3 mg/kg; type: ADME, organism-based; settings: in vivo
[30] = biological target: T1, YEATS domain-containing protein 4; test: Binding affinity to YEATS4 (unknown origin) assessed as change in enthalpy by isothermal calorimetric analysis
[31] = biological target: T1, YEATS domain-containing protein 4; test: Binding affinity to YEATS4 (unknown origin) assessed as change in entropy by isothermal calorimetric analysis
[32] = biological target: T2, Protein AF-9 (Homo sapiens, UniProt P42568); test: Inhibition of N-terminal nanoLuc-tagged YEATS3 in HEK293T cells co-transfected with C-terminal halo-tagged histone 3.3 incubated for 24 hrs in presence of SAHA by NanoBRET assay; type: cell-based
T2 sequence (P42568 whole entry): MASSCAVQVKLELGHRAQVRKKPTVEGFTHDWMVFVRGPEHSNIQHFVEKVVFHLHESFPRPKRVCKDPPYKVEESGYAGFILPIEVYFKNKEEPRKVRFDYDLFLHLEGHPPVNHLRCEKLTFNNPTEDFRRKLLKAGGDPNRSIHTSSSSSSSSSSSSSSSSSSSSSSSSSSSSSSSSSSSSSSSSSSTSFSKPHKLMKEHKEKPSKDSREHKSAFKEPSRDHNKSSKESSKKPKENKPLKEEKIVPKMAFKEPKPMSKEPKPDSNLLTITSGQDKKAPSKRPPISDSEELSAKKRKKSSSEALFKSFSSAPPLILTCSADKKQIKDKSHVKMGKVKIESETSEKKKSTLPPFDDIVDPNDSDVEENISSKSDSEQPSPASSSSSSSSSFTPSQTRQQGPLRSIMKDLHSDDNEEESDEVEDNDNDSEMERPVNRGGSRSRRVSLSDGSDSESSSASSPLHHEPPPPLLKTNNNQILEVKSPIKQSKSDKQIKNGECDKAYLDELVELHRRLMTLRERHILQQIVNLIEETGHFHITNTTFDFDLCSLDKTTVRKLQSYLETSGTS

Chain of Voltage-gated inwardly rectifying potassium channel KCNH2 (Q12809 whole entry): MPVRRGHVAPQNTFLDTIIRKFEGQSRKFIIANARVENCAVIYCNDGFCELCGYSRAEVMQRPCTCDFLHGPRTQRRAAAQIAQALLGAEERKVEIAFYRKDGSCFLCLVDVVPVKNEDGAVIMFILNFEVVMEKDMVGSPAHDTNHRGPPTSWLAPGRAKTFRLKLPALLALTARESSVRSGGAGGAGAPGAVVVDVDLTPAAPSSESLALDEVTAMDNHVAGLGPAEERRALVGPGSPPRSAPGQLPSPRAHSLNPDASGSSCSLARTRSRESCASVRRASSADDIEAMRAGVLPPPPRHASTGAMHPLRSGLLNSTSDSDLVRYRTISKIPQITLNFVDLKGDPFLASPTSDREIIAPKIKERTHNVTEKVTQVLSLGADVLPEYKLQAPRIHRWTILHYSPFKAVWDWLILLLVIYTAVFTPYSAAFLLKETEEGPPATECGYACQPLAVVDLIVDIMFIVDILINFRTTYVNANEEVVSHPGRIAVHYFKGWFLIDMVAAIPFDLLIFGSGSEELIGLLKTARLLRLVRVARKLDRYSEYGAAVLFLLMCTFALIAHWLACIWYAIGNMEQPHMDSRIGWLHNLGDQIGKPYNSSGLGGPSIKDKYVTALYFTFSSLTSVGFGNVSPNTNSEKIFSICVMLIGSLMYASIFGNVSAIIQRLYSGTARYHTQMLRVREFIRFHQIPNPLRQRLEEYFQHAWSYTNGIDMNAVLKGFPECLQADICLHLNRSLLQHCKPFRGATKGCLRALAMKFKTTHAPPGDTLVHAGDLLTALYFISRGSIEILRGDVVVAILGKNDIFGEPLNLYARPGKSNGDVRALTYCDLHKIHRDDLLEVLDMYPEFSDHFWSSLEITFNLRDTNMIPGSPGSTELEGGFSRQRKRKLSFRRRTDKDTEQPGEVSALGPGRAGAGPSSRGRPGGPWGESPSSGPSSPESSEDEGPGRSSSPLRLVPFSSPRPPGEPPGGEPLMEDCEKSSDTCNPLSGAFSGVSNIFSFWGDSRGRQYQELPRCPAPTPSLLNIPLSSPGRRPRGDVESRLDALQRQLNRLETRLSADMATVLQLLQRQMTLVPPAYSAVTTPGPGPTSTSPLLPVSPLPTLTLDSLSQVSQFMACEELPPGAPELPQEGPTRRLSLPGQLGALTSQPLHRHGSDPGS
T1 sequence (O95619 whole entry, the tested form may be a part): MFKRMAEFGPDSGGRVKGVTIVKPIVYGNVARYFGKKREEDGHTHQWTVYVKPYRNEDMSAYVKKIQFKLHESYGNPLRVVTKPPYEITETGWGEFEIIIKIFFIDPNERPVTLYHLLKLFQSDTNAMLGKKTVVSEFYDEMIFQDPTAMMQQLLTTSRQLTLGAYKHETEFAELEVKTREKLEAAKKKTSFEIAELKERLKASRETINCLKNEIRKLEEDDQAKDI

CCNC(=O)c1ccc2c(c1)nc(C(F)F)n2[C@H]1CCN(CC2(O)CCCCC2)C[C@@H]1C
Ki [1]: 0.059 µM | Papp [2]: 0.271 ×10⁻⁶ cm/s | hepatocyte CLint [3]: 12.8 µL/min/1e6 cells | Ki [4]: 35.4 µM | IC50 [5]: > 300 µM | Ratio Ki [6]: 19 | Ratio Ki [7]: 17 | Ratio Ki [8]: 14 | logD [9]: 3.1 | IC50 [10]: 0.73 µM | IC50 at 7 days [11]: > 0.05 µM | Kd [12]: 0.297 µM | Kd [13]: 0.045 µM | Vd [14]: 2.6 L/kg | Vd [15]: 7.8 L/kg | half-life [16]: 1.4 h | half-life [17]: 4.9 h | half-life [18]: 1.2 h | Cmax [19]: 487 ng/mL | Cmax [20]: 1000 ng/mL | Cmax [21]: 14000 ng/mL | AUC [22]: 1150 ng·min/mL | AUC [23]: 2150 ng·min/mL | AUC [24]: 675 ng·h/mL | Tmax [25]: 0.4 h | Tmax [26]: 0.3 h | Tmax [27]: 0.8 h | F [28]: 46% | F [29]: 68%

CCNC(=O)c1ccc2c([C@H]3CCN(CC4(O)CCOCC4)C[C@@H]3C)c(C)nn2c1
Ki [1]: 0.037 µM | Papp [2]: 0.093 ×10⁻⁶ cm/s | hepatocyte CLint [3]: < 1.8 µL/min/1e6 cells | Ki [4]: 66.6 µM | IC50 [5]: > 300 µM | Ratio Ki [6]: 35 | Ratio Ki [7]: 15 | Ratio Ki [8]: 27 | logD [9]: 1.6 | IC50 [10]: 0.3 µM | IC50 at 7 days [11]: > 0.05 µM | Kd [13]: 0.03 µM | deltaH [30]: 13.3 kcal/mol | deltaH [31]: -11.1 cal/mol.K

COC1(CN2CC[C@H](c3c(C)nn4cc(C(=O)NCC5CC5)ccc34)[C@@H](C)C2)CCOCC1
Ki [1]: 0.057 µM | Papp [2]: 0.248 ×10⁻⁶ cm/s | hepatocyte CLint [3]: 16.4 µL/min/1e6 cells | Ki [4]: 16.6 µM | IC50 [5]: > 300 µM | Ratio Ki [6]: 213 | Ratio Ki [7]: 49 | Ratio Ki [8]: 160 | logD [9]: 2.8

CCNC(=O)c1ccc2c(C3CCN(CC4(O)CCCCC4)CC3)c(-c3cccn(C)c3=O)nn2c1
Ki [1]: 0.069 µM | Papp [2]: 0.006 ×10⁻⁶ cm/s | hepatocyte CLint [3]: < 1.8 µL/min/1e6 cells | Ki [4]: 36.1 µM | IC50 [5]: > 300 µM | Ratio Ki [6]: 19 | Ratio Ki [7]: 4 | Ratio Ki [8]: 15 | logD [9]: 0.09

CCNC(=O)c1ccc2c(C3CCN(CC4(O)CCCCC4)CC3)c(C)nn2c1
Ki [1]: 0.056 µM | Papp [2]: 0.246 ×10⁻⁶ cm/s | hepatocyte CLint [3]: 3.2 µL/min/1e6 cells | Ki [4]: 4.64 µM | IC50 [5]: > 300 µM | Ratio Ki [6]: 20 | Ratio Ki [7]: 16 | Ratio Ki [8]: 23 | logD [9]: 2

CCNC(=O)c1ccc2c(c1)nc(C)n2[C@H]1CCN(CC2(O)CCCCC2)C[C@@H]1C
Ki [1]: 0.063 µM | Papp [2]: 0.119 ×10⁻⁶ cm/s | hepatocyte CLint [3]: 5.9 µL/min/1e6 cells | Ki [4]: 22.3 µM | IC50 [5]: > 300 µM | Ratio Ki [6]: 16 | Ratio Ki [7]: 17 | Ratio Ki [8]: 12 | logD [9]: 2.4 | IC50 [10]: 0.29 µM | IC50 at 7 days [11]: > 0.1 µM | Kd [12]: 0.53 µM | Kd [13]: 0.08 µM

CCNC(=O)c1ccc2c(c1)[nH]c(=O)n2C1CCN(CC2(O)CCCCC2)CC1
Ki [1]: 0.284 µM | Papp [2]: 0.021 ×10⁻⁶ cm/s | hepatocyte CLint [3]: 3.2 µL/min/1e6 cells | Ki [4]: 40.2 µM | IC50 [5]: > 300 µM | Ratio Ki [6]: 8 | Ratio Ki [7]: 14 | Ratio Ki [8]: 7 | logD [9]: 1.7

Cc1nn2cc(C(=O)NCC3CC3)ccc2c1[C@H]1CCN(CC2(O)CCOCC2)C[C@@H]1C
Ki [1]: 0.043 µM | Papp [2]: 0.154 ×10⁻⁶ cm/s | hepatocyte CLint [3]: < 1.8 µL/min/1e6 cells | Ki [4]: 7.38 µM | IC50 [5]: 269 µM | Ratio Ki [6]: 133 | Ratio Ki [7]: 16 | Ratio Ki [8]: 106 | logD [9]: 2

CCNC(=O)c1ccc2c(c1)nc(-c1cccn(C)c1=O)n2[C@H]1CCN(CC2(O)CCCCC2)C[C@@H]1C
Ki [1]: 0.033 µM | Papp [2]: 0.004 ×10⁻⁶ cm/s | hepatocyte CLint [3]: < 1.8 µL/min/1e6 cells | Ki [4]: > 100 µM | IC50 [5]: > 300 µM | Ratio Ki [6]: 5 | Ratio Ki [7]: 2 | Ratio Ki [8]: 4 | logD [9]: 1.7

CCNC(=O)c1ccc2c(C3CCN(CC4(O)C5CC6CC(C5)CC4C6)CC3)c(C)nn2c1 (configuration not stated)
Ki [1]: 0.021 µM | Papp [2]: 0.331 ×10⁻⁶ cm/s | hepatocyte CLint [3]: 33.7 µL/min/1e6 cells | Ki [4]: 3.43 µM | IC50 [5]: 123 µM | Ratio Ki [6]: 19 | Ratio Ki [7]: 7 | Ratio Ki [8]: 25 | logD [9]: 3.2 | IC50 ([10]; hek293t): 0.2 µM | IC50 at 7 days [11]: 0.022 µM | Kd [12]: 0.103 µM | Kd [13]: 0.053 µM

CCNC(=O)c1ccc2c(c1)nc(C)n2C1CCN(CC2(O)CCCCC2)CC1
Ki [1]: 0.141 µM | Papp [2]: 0.108 ×10⁻⁶ cm/s | hepatocyte CLint [3]: 2.4 µL/min/1e6 cells | Ki [4]: 28.9 µM | IC50 [5]: > 300 µM | Ratio Ki [6]: 19 | Ratio Ki [7]: 11 | Ratio Ki [8]: 16 | logD [9]: 1.9

CCNC(=O)c1ccc2c([C@H]3CCN(CC4(O)CCCCC4)C[C@@H]3C)c(C)nn2c1
IC50 [32]: 2.98 µM | Ki [1]: 0.033 µM | Papp [2]: 0.26 ×10⁻⁶ cm/s | hepatocyte CLint [3]: 4.1 µL/min/1e6 cells | Ki [4]: 4.64 µM | IC50 [5]: > 300 µM | Ratio Ki [6]: 15 | Ratio Ki [7]: 10 | Ratio Ki [8]: 14 | logD [9]: 2.5 | IC50 [10]: 0.17 µM | IC50 at 7 days [11]: > 0.05 µM | Kd [12]: 0.34 µM | Kd [13]: 0.0527 µM | deltaH [30]: -15.1 kcal/mol | deltaH [31]: -17.4 cal/mol.K | half-life [18]: 1.2 h | Cmax [21]: 9140 ng/mL | AUC [24]: 412 ng·h/mL | Tmax [27]: 0.5 h
